Consider one compound from patent publication US11766419B2, “Mebeverine as soluble epoxide hydrolase inhibitor” (Banasthali Vidyapith, priority 2021, dated 2023).

The experiment addresses T1, sEH (Homo sapiens, UniProt P34913).
T1 sequence (P34913 1-555): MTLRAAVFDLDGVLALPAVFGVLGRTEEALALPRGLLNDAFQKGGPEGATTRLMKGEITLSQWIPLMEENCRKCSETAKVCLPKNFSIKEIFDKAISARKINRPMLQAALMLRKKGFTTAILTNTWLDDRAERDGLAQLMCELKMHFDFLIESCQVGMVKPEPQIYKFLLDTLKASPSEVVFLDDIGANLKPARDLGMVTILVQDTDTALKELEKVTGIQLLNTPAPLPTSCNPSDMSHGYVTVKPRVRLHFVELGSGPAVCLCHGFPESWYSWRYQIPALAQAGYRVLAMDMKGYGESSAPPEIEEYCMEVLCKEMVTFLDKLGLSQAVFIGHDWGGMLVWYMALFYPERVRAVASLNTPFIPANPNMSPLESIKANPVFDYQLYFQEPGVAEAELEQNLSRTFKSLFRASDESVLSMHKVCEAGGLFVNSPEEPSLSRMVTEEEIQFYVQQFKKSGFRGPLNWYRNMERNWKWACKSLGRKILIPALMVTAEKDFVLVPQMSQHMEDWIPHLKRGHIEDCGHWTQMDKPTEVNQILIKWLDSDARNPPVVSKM
Nature of the experiment: In vitro sEH activity assay (PHOME substrate, fluorescence). Format: biochemical. The method, then: Hydrolysis of PHOME by sEH results in the release of cyanohydrins that further decomposes to cyanide ion and 6-methoxy-2-naphthaldehyde (highly fluorescent). The fluorescence was analyzed at an excitation and emission wavelength of 330 nm and 465 nm respectively.

Broadly, the IC50 is the concentration needed to halve the response being measured. Low values mean greater potency in that assay, high ones weaker potency in that assay. For `C[C@H](CS)C(=O)N1CCC[C@H]1C(=O)O` [Captopril, captopril], the sEH activity (remaining enzyme activity) stood at 100%. The IC50 (sEH, PHOME substrate) was 0.693 µM.
